Test results from US12371436B2, “Substituted benzodiazoliums as ENaC inhibitors” (ENTERPRISE THERAPEUTICS LIMITED, priority 2016, dated 2025).
Structures can show the parent of a compound that is named as a salt.

Target: T1, ENaC (Homo sapiens, UniProt P37088+P51168+P51170)
T1 construct: host or cells: primary human bronchial epithelial cells (HBECs) differentiated at air-liquid interface
T1 sequence (P37088 1-669): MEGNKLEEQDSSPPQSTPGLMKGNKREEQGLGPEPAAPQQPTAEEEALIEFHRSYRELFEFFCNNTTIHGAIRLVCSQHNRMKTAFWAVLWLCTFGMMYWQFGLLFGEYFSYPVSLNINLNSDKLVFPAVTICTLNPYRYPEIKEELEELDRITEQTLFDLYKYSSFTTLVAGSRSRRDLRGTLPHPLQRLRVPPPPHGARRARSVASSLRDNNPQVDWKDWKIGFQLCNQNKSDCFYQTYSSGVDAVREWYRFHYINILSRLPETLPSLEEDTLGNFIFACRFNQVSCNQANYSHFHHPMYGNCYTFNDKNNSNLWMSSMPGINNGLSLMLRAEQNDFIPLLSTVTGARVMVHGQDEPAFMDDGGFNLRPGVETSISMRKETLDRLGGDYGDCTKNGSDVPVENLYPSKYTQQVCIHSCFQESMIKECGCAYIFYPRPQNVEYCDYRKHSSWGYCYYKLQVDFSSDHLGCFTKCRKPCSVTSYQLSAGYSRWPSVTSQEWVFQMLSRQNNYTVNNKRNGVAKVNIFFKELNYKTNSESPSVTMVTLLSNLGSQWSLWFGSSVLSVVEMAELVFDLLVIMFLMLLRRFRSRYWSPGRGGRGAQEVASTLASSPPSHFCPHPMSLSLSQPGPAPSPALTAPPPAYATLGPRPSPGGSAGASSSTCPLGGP
T1 sequence (P51168 1-640): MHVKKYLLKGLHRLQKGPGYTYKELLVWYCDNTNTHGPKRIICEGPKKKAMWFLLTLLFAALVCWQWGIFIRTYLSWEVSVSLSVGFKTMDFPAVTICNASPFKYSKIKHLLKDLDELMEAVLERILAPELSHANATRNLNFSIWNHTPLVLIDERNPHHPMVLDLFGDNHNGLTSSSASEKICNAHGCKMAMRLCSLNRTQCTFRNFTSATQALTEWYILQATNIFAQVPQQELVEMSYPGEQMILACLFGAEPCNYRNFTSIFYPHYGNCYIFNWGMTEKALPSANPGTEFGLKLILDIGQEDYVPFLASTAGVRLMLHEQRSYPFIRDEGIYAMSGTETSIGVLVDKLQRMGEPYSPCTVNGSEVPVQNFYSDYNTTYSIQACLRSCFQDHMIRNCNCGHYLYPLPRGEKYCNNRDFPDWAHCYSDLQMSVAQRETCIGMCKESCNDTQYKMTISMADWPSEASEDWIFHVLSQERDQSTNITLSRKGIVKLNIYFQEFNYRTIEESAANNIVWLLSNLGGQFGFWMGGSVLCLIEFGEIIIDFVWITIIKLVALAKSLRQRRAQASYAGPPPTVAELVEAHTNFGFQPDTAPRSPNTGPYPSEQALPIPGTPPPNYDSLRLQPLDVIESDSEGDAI
T1 sequence (P51170 1-649): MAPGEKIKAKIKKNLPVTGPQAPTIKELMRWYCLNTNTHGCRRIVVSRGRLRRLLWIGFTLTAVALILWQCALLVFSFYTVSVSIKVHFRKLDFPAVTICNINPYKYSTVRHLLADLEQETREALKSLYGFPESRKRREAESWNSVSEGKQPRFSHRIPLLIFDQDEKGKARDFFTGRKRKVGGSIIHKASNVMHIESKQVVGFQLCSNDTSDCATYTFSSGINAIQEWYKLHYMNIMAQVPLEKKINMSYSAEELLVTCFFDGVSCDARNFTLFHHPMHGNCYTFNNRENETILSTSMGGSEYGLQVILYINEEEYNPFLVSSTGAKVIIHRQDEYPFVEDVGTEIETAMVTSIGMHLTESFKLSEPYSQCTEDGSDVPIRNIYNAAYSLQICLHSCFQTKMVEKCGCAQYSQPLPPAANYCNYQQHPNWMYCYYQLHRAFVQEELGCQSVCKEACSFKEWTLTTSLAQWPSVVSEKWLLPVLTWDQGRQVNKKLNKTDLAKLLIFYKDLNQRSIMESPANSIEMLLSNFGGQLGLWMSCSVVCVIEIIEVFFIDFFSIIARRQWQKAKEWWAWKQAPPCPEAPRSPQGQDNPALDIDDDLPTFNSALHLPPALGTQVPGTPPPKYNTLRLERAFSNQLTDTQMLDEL
Assay: Short circuit current assay to determine ENaC blocker potency in human bronchial epithelial cells
Assay type: cell-based
Conditions: 50% inhibition of total amiloride-sensitive ISC, apical addition, read-out: Averages.ENaC IC50 (nM) Avg
Experimental: Example 68—Short circuit current assay to determine ENaC blocker potency in human bronchial epithelial cells
Human bronchial epithelial cells (HBECs) (Lonza, UK) were cultured using a modification of the method described by Coote et al, (2008). Cells were seeded into plastic T-75 flasks and grown in Bronchial Epithelial Cell Growth Medium (BEGM) (Lonza, UK) supplemented with bovine pituitary extract (52 ng/mL), hydrocortisone (0.5 μg/mL), human recombinant Epidermal Growth Factor (0.5 ng/mL), epinephrine (0.5 ng/mL), transferrin (10 ng/mL), insulin (5 ng/mL), retinoic acid (0.1 ng/mL), triiodothyronine (6.5 ng/mL), gentamycin (50 μg/mL) and amphotericin-B (50 ng/mL). Medium was changed every 48 hours until cells were 90% confluent. Cells were then passaged and seeded (8.25×10^5 cells/insert) onto polycarbonate Snapwell™ inserts (Costar, UK) in differentiation media containing 50% DMEM in BGEM with the same supplements as above but without triiodothyronine and a final retinoic acid concentration of 50 nM (all-trans retinoic acid; Sigma-Aldrich, UK). Cells were maintained submerged for the first 7 days in culture after which time they were exposed to an apical air interface for the remainder of the culture period. From the first day of establishment of an ALI, HBEC were fed with a DMEM:HAMS F-12 (1:1) media containing 2% Ultroser G (Pall BioSepra, France) with gentamycin (50 μg/mL) and amphotericin B (50 ng/mL). Cells were used for short-circuit current assay between days 14-21 after the establishment of the ALI. At all stages of culture, cells were maintained at 37° C. in 5% CO2 in an air incubator.
Short-Circuit Current (ISC) Measurements
Snapwell inserts were mounted in Costar Vertical Diffusion Chambers (Costar, UK) and were bathed with continuously gassed Ringer solution (5% CO2 in O2; pH 7.4) maintained at 37° C. containing (in mM): 120 NaCl, 25 NaHCO3, 3.3 KH2PO4, 0.8 K2HPO4, 1.2 CaCl2, 1.2 MgCl2 and 10 glucose. The solution osmolarity was always between 280-300 mOsm/kg H2O for all physiological salt solutions used. Cells were voltage clamped to 0 mV (model EVC4000, WPI). Transepithelial resistance (RT) was measured by applying a 2 mV pulse at 30 s intervals and calculating RT by Ohm's law. Data were recorded using a PowerLab workstation (ADlnstruments, UK).
ENaC blocker compounds were added to the apical chamber from a 1000-fold stock solution (prepared in DMSO) to achieve a cumulative concentration response in terms of the inhibition of the basal ISC. At the completion of the concentration response, a supra-maximal concentration of amiloride (10 μM) was added. The concentration of test compound that induced a 50% inhibition of the total amiloride-sensitive ISC (IC50) was calculated using GraphPad Prism v6.05. The results are presented in Table 2, from which it can be seen that the compounds of the present invention have ENaC inhibiting activity.

| SMILES | IC50 |
| --- | --- |
| CCn1c(CNC(=O)c2nc3cc[nH]c3nc2N)[n+](CC)c2ccc(C(=O)NC3CCN(C(=O)OC(C)(C)C)CC3)cc21 [Example 36, 2-[({3-amino-5H-pyrrolo[2,3-b]pyrazin-2-yl}formamido)methyl]-6-({1-[(tert-butoxy)carbonyl]piperidin-4-yl}carbamoyl)-1,3-diethyl-1H-1,3-benzodiazol-3-ium] | 3 nM |
| CCn1c(CNC(=O)c2nc3cc[nH]c3nc2N)[n+](CCSC)c2ccc(OC)cc21 [Example 12, 2-[({3-amino-5H-pyrrolo[2,3-b]pyrazin-2-yl}formamido)methyl]-1-ethyl-6-methoxy-3-[2-(methylsulfanyl)ethyl]-1H-1,3-benzodiazol-3-ium iodide] | 5 nM |
| CCn1c(CNC(=O)c2nc3cc[nH]c3nc2N)[n+](CC)c2ccc(C(=O)NC3CCN(C[C@H](O)[C@@H](O)[C@H](O)[C@H](O)CO)CC3)cc21 [Example 49, 2-[({3-amino-5H-pyrrolo[2,3-b]pyrazin-2-yl}formamido)methyl]-1,3-diethyl-6-({1-[(2S,3R,4R,5R)-2,3,4,5,6-pentahydroxyhexyl]piperidin-4-yl}carbamoyl)-1H-1,3-benzodiazol-3-ium] | 7 nM |
| CCn1c(CNC(=O)c2nc3cc[nH]c3nc2N)[n+](CC)c2ccc(C(=O)NCCN3CCC(N)CC3)cc21 [Example 42, 2-[({3-amino-5H-pyrrolo[2,3-b]pyrazin-2-yl}formamido)methyl]-6-{[2-(4-aminopiperidin-1-yl)ethyl]carbamoyl}-1,3-diethyl-1H-1,3-benzodiazol-3-ium] | 10 nM |
| CCn1c(CNC(=O)c2nc3cc[nH]c3nc2N)[n+](CC)c2ccc(C3CCN(C(=O)OC(C)(C)C)CC3)cc21 [Example 25, 2-[({3-amino-5H-pyrrolo[2,3-b]pyrazin-2-yl}formamido)methyl]-6-{1-[(tert-butoxy)carbonyl]piperidin-4-yl}-1,3-diethyl-1H-1,3-benzodiazol-3-ium] | 2 nM |
| CCn1c(CNC(=O)c2nc3cc[nH]c3nc2N)[n+](C)c2ccccc21 [Example 1, 2-[({3-amino-5H-pyrrolo[2,3-b]pyrazin-2-yl}formamido)methyl]-1-ethyl-3-methyl-1H-1,3-benzodiazol-3-ium formate] | 33 nM |
| CCn1c(CNC(=O)c2nc3cc[nH]c3nc2N)[n+](CC)c2ccc(CCCNC(=O)OC(C)(C)C)cc21 [Example 24, 2-[({3-amino-5H-pyrrolo[2,3-b]pyrazin-2-yl}formamido)methyl]-6-(3-{[(tert-butoxy)carbonyl]amino}propyl)-1,3-diethyl-1H-1,3-benzodiazol-3-ium] | 6 nM |
| CCn1c(CNC(=O)c2nc3c(Cl)c[nH]c3nc2N)[n+](CC)c2ccc(C(=O)N3CCC(N(C[C@H](O)[C@@H](O)[C@H](O)[C@H](O)CO)C[C@H](O)[C@@H](O)[C@H](O)[C@H](O)CO)CC3)cc21 [Example 65, 2-[({3-amino-7-chloro-5H-pyrrolo[2,3-b]pyrazin-2-yl}formamido)methyl]-6-(4-{bis[(2S,3R,4R,5R)-2,3,4,5,6-pentahydroxyhexyl]amino}piperidine-1-carbonyl)-1,3-diethyl-1H-1,3-benzodiazol-3-ium] | 49 nM |
| CCn1c(CNC(=O)c2nc3cc[nH]c3nc2N)[n+](CC)c2ccc(OCCNC(=N)N)cc21 [Example 32, 2-[({3-amino-5H-pyrrolo[2,3-b]pyrazin-2-yl}formamido)methyl]-6-(2-carbamimidamidoethoxy)-1,3-diethyl-1H-1,3-benzodiazol-3-ium] | 3 nM |
| CCn1c(CNC(=O)c2nc3cc[nH]c3nc2N)[n+](CC)c2ccc(OC)cc21 [Example 7, 2-[({3-amino-5H-pyrrolo[2,3-b]pyrazin-2-yl}formamido)methyl]-1,3-diethyl-6-methoxy-1H-1,3-benzodiazol-3-ium formate] | 3 nM |
| CCn1c(CNC(=O)c2nc3cc[nH]c3nc2N)[n+](CC)c2ccc(OCCCN)cc21 [Example 28, 2-[({3-amino-5H-pyrrolo[2,3-b]pyrazin-2-yl}formamido)methyl]-6-(3-aminopropoxy)-1,3-diethyl-1H-1,3-benzodiazol-3-ium] | 7 nM |
| CCn1c(CNC(=O)c2nc3c(Cl)c[nH]c3nc2N)[n+](CC)c2ccc(C(=O)O)cc21 [Example 63, 2-[({3-amino-7-chloro-5H-pyrrolo[2,3-b]pyrazin-2-yl}formamido)methyl]-6-carboxy-1,3-diethyl-1H-1,3-benzodiazol-3-ium] | 133 nM |
| CCn1c(CNC(=O)c2nc3cc[nH]c3nc2N)[n+](CC)c2ccc(OCCN(C[C@H](O)[C@@H](O)[C@H](O)[C@H](O)CO)C[C@H](O)[C@@H](O)[C@H](O)[C@H](O)CO)cc21 [Example 43, 2-[({3-amino-5H-pyrrolo[2,3-b]pyrazin-2-yl}formamido)methyl]-5-(2-{bis[(2S,3R,4R,5R)-2,3,4,5,6-pentahydroxyhexyl]amino}ethoxy)-1,3-diethyl-1H-1,3-benzodiazol-3-ium] | 51 nM |
| CCn1c(CNC(=O)c2nc3cc[nH]c3nc2N)[n+](CC)c2ccc(OCCNC(=O)OC(C)(C)C)cc21 [Example 22, 2-[({3-amino-5H-pyrrolo[2,3-b]pyrazin-2-yl}formamido)methyl]-6-(2-{[(tert-butoxy)carbonyl]amino}ethoxy)-1,3-diethyl-1H-1,3-benzodiazol-3-ium] | 8 nM |
